Measured values taken from patent US10751274B1, “Fast-acting micelle nanoparticle and cosmetic composition comprising same” (FOREST COMPANY, priority 2017, dated 2020).

Test system: ICR mouse skin
Assay: Mouse skin penetration experiment, Franz diffusion cell
Assay type: in vitro ADME, ICR outbred albino mice
Conditions: after 24 hr
Experimental: In order to evaluate the transdermal penetration rate of the micelle nanoparticles of Example 1, a mouse skin penetration experiment was performed through a Franz diffusion cell using the micelle nanoparticles as a sample. The mouse skin was extracted from the back of ICR outbred albino mice (12-week-old, about 50 g, females), which were killed by cervical dislocation. The subcutaneous fat was removed from the extracted skin (1.5 cm×1.5 cm) so that the skin was not hurt, and the dermis was used without being removed. The skin was fixed between the donor and the receptor phase so that the stratum corneum part of the back skin of the prepared ICR mice faced upwards.
The transepidermal area contacting the receptor phase was 0.6362 cm^2, and the receptor phase was a mixed solution of 2.0% HCO-60 (in 20% ethanol), showing the highest solubility in the preliminary experiments. 5 ml of the receptor phase was placed in a Franz diffusion cell, and the temperature was maintained at 37.0±0.5° C. using a constant-temperature water bath. Stirring to homogeneity was performed at 150 rpm for 24 hr. 0.5 ml of each sample was applied to the transepidermal surface of the donor, after which 0.75 ml of the receptor phase was collected every 8 hr (a total of 3 times) for 24 hr through a sampling port using a 1 ml syringe and stored in a 1.5 ml tube. Immediately after collection, supplementation with the same amount of the receptor solution was conducted. As such, the collected sample was analyzed through HPLC in order to quantify […] therein.
In order to measure the amount of PhS1P remaining on the skin, unpenetrated samples were washed three times with PBS immediately after taking the skin out of the diffusion cell. […] The ethanol was evaporated to dryness, after which PhS1P was dissolved again in 0.75 ml of ethanol, and the amount of PhS1P remaining on the skin was quantified through HPLC. […]

For `CCCCCCCCCCCCCC[C@@H](O)[C@@H](O)[C@@H](N)COP(=O)(O)O` [PhS1P solution, phytosphingosine-1-phosphate], the “amount of PhS1P remaining in the stratum corneum (tape stripping)” value was 1.81 µg, the “amount of PhS1P that penetrated the skin (final cumulative)” value (receptor phase sampled every 8 hr, 0.5 ml sample) was 2.52 µg and the “amount of PhS1P present in the skin” value (tape-stripped skin) was 2.72 µg.
